Results taken from patent US10428080B2, “TBK/IKK inhibitor compounds and uses thereof” (Merck Patent GmbH, priority 2015, dated 2019).
pIC50: −log10 of the molar value. Structures can show the parent of a compound that is named as a salt.

Columns and labels:
[1] = target: T1, IKKε (Homo sapiens, UniProt Q14164); assay: IKKe Biochemical Assay; details: read-out: IKKε IC50
T1 sequence (Q14164 1-716): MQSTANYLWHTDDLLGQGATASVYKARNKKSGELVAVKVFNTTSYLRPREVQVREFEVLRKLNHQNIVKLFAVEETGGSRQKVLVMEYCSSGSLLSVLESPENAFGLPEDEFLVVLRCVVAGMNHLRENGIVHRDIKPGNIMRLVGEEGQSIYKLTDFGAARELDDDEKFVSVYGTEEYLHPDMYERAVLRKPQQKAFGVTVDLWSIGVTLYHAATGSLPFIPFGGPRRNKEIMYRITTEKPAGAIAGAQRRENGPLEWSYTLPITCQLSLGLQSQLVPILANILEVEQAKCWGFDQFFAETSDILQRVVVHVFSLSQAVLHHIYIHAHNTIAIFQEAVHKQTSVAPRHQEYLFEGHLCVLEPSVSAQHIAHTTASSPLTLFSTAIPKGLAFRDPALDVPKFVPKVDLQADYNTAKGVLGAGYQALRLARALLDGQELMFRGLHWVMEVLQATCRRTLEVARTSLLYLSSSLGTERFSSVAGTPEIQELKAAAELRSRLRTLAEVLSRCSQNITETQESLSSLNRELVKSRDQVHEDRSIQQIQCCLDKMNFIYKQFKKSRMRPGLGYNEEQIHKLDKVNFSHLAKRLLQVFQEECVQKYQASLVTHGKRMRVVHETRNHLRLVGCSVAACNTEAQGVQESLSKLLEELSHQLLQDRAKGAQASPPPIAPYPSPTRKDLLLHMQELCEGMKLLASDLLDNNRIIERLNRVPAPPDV
Procedure: (§1) Test compounds were transferred into Labcyte polypropylene 384 well plates (P055-25) and diluted to 3 mM using DMSO. 3 mM test compounds were dispensed using Labcyte ECHO dose response module into (Greiner 784075 plates (columns 3-12 and 13-22, 10 point 1:4) so that high concentration was 30 uM final. 100 uM of a reference compound (1 uM final high concentration). Backfilling was performed if necessary so that all wells contain 1% DMSO final: […]
(§2) add 75 nl DMSO/well into columns 1, 2 and 24 using Labcyte Echo. add 75 nl 1.0 mM staurosporine/well into column 23 using Labcyte Echo (10 uM final) add 4.5 ul enzyme/well using multidrop dispenser add 3 ul substrate/well using multidrop dispenser incubate at 25° C. for 90 min. add 7.5 ul 2× stop buffer read on labchip ez reader II using IKKε. job
(§3) Raw data files were opened in the Caliper LabChip Reviewer program (Version 3.0.265.0 SP2) and peak assignments were adjusted to reflect “substrate first” with the software's post-run analysis options. A spline-fit baseline was applied using the software's analysis algorithm.

[2] = target: T2, TBK1 (Homo sapiens, UniProt Q9UHD2); assay: TBK Biochemical Assay; details: read-out: TBK1 IC50
T2 sequence (Q9UHD2 1-729): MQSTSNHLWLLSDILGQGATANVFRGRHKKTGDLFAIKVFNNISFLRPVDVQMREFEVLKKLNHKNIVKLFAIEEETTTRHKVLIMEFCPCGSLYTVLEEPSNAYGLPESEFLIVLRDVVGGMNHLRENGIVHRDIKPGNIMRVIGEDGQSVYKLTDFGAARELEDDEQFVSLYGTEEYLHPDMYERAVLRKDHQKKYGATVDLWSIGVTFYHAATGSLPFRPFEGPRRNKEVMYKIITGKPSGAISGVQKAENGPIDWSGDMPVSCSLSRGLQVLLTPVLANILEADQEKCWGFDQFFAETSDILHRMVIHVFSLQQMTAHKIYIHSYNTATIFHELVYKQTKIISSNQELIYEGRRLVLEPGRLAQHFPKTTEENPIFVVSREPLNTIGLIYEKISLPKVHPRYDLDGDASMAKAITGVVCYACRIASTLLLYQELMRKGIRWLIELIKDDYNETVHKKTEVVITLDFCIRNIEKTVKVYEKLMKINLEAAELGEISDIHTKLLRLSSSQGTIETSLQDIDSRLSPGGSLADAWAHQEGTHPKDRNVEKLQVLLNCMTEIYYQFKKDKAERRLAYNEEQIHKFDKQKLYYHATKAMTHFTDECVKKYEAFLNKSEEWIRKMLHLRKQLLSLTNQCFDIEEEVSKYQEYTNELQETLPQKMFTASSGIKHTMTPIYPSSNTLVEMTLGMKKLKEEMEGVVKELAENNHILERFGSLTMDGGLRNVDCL
Procedure: Example 482: TBK Biochemical Assay
as §1, with “Greiner” for “(Greiner”
as §2, with “C. in Heidolph incubator” for “C.”, “buffer using multidrop dispenser” for “buffer”, “TBK1.job” for “IKKε. job”
as §3

Row | SMILES | pIC50 [1] | pIC50 [2]
1 | COc1cc(C(=O)N(C)C)ccc1-c1cc2nccc(-c3ccc(OC4(C(F)(F)F)CCNC4)c(C#N)c3)c2o1 (stereo not shown) [Compound 113, 4-{7-[3-Cyano-4-(3-trifluoromethyl-pyrrolidin-3-yloxy)-phenyl]-furo[3,2-b]pyridin-2-yl}-3-methoxy-N,N-dimethyl-benzamide] | > 7.00 | > 7.00
2 | COc1cc(C(=O)NCC2CCCCC2(F)F)ccc1-c1cc2nccc(-c3ccc(OC4CCOCC4)c(C#N)c3)c2o1 (stereo not shown) [Compound 151, 4-{7-[3-Cyano-4-(tetrahydro-pyran-4-yloxy)-phenyl]-furo[3,2-b]pyridin-2-yl}-N-(2,2-difluoro-cyclohexylmethyl)-3-methoxy-benzamide] | > 7.00 | > 7.00
3 | CCN(C)C(=O)c1ccc(-c2cc3nccc(-c4ccc(NC5CCOCC5)c(C#N)c4)c3o2)c(OC)c1 [Compound 262, 4-(7-(3-cyano-4-(tetrahydro-2H-pyran-4-ylamino)phenyl)furo[3,2-b]pyridin-2-yl)-N-ethyl-3-methoxy-N-methylbenzamide] | > 7.00 | > 7.00
4 | COc1cc(C(=O)N(C)C)ccc1-c1cc2nccc(-c3ccc(OC4CNC4)c(C#N)c3)c2o1 [Compound 128, 4-{7-[4-(Azetidin-3-yloxy)-3-cyano-phenyl]-furo[3,2-b]pyridin-2-yl}-3-methoxy-N,N-dimethyl-benzamide] | > 7.00 | > 7.00
5 | COc1cc(C(=O)N(C)C)ccc1-c1cc2nccc(-c3cc(C#N)c(NC4CCOCC4)c(C4CC4)c3)c2o1 [Compound 308, 4-(7-(3-cyano-5-cyclopropyl-4-(tetrahydro-2H-pyran-4-ylamino)phenyl)furo[3,2-b]pyridin-2-yl)-3-methoxy-N,N-dimethylbenzamide] | < 5.30 | < 5.30
6 | COc1cc(C(=O)N(C)C)cnc1-c1cc2ncc(C3CC3)c(-c3ccc(OC4CCOCC4)c(C#N)n3)c2o1 [Compound 357, 6-[7-[6-cyano-5-(oxan-4-yloxy)pyridin-2-yl]-6-cyclopropylfuro[3,2-b]pyridin-2-yl]-5-methoxy-N,N-dimethylpyridine-3-carboxamide hydrochloride] | < 5.30 | < 5.30
7 | COc1cc(C(=O)N2C3CCC2COC3)ccc1-c1cc2nccc(-c3ccc(OC4CCOCC4)c(C#N)c3)c2o1 [Compound 2, 5-{2-[2-Methoxy-4-(3-oxa-8-aza-bicyclo[3.2.1]octane-8-carbonyl)-phenyl]-furo[3,2-b]pyridin-7-yl}-2-(tetrahydro-pyran-4-yloxy)-benzonitrile] | > 7.00 | > 7.00
8 | COc1cc(C(=O)NC2CC3CCC2C3)ccc1-c1cc2nccc(-c3ccc(OC4CCOCC4)c(C#N)c3)c2o1 (stereo not shown) [Compound 496] | > 7.00 | > 7.00
9 | COc1cc(C(=O)N(C)C)ccc1-c1cc2nccc(-c3ccc(O[C@@H]4[C@H](C)COC[C@@H]4C)c(C#N)c3)c2o1 [Compound 233, 4-(7-(3-cyano-4-(3,5-dimethyl-tetrahydro-2H-pyran-4-yloxy)phenyl)furo[3,2-b]pyridin-2-yl)-3-methoxy-N,N-dimethylbenzamide] | > 7.00 | > 7.00
10 | COc1cc(C(=O)N(C)C)cnc1-c1cc2ncc(C)c(-c3ccc(OC4CCOCC4)c(C#N)n3)c2o1 [Compound 321, 6-[7-[6-cyano-5-(oxan-4-yloxy)pyridin-2-yl]-6-methylfuro[3,2-b]pyridin-2-yl]-5-methoxy-N,N-dimethylpyridine-3-carboxamide hydrochloride] | 6.00 to 7.00 | 6.00 to 7.00
11 | COc1cc(C(=O)N(C)CCCO)ccc1-c1cc2nccc(-c3ccc(OC4CCOCC4)c(C#N)c3)c2o1 [Compound 258, 4-(7-(3-cyano-4-(tetrahydro-2H-pyran-4-yloxy)phenyl)furo[3,2-b]pyridin-2-yl)-N-(3-hydroxypropyl)-3-methoxy-N-methylbenzamide hydrochloride] | > 7.00 | > 7.00
12 | COc1cc(C(=O)N(C)C)ccc1-c1cc2nccc(-c3ccc(OC4CCOCC4OCc4ccccc4)c(C#N)c3)c2o1 (stereo not shown) [Compound 211] | 6.00 to 7.00 | –
13 | CN(C)C(=O)c1ccc(-c2cc3nccc(-c4ccc(Oc5ccncc5)c(C#N)c4)c3o2)cc1 [Compound 200, 4-{7-[3-Cyano-4-(pyridin-4-yloxy)-phenyl]-furo[3,2-b]pyridin-2-yl}-N,N-dimethyl-benzamide] | < 5.30 | –

Continued, values first:

Row | pIC50 [1] | pIC50 [2] | SMILES
14 | > 7.00 | > 7.00 | N#Cc1cc(-c2ccnc3cc(-c4ccc(C(=O)O)cc4)oc23)ccc1N1CC[C@H](F)C1 [Compound 107, 4-{7-[3-Cyano-4-((S)-3-fluoro-pyrrolidin-1-yl)-phenyl]-furo[3,2-b]pyridin-2-yl}-benzoic acid]
15 | > 7.00 | > 7.00 | CN(C)C(=O)c1ccc(-c2cc3nccc(-c4ccc(C(C)(C)N5CCOCC5)c(C#N)c4)c3o2)cc1 [Compound 223, 4-(7-(3-cyano-4-(2-morpholinopropan-2-yl)phenyl)furo[3,2-b]pyridin-2-yl)-N,N-dimethylbenzamide hydrochloride]
16 | 6.00 to 7.00 | 6.00 to 7.00 | CN(C)C(=O)c1ccc(-c2cc3nccc(-c4ccc(NC5C6COCC65)c(C#N)c4)c3o2)cc1 (stereo not shown) [Compound 217, 4-(7-(4-(3-oxa-bicyclo[3.1.0]hexan-6-ylamino)-3-cyanophenyl)furo[3,2-b]pyridin-2-yl)-N,N-dimethylbenzamide hydrochloride]
17 | 6.00 to 7.00 | 6.00 to 7.00 | CN(C)C(=O)c1ccc(-c2cc3nccc(-c4ccc(O[C@H]5CCCOC5)c(C#N)c4)c3o2)cc1 [Compound 174, 4-(7-{3-Cyano-4-[(S)-(tetrahydro-pyran-3-yl)oxy]-phenyl}-furo[3,2-b]pyridin-2-yl)-N,N-dimethyl-benzamide]
18 | 6.00 to 7.00 | 6.00 to 7.00 | C[C@@H]1COC[C@H](C)[C@H]1Oc1ccc(-c2ccnc3cc(-c4ccc(C(=O)N(C)C)cc4)oc23)cc1C#N (single isomer, unassigned) [Compound 219, 4-(7-(3-cyano-4-(3,5-dimethyl-tetrahydro-2H-pyran-4-yloxy)phenyl)furo[3,2-b]pyridin-2-yl)-N,N-dimethylbenzamide hydrochloride]
19 | 6.00 to 7.00 | < 5.30 | CCOC(=O)c1ccc(-c2cc3nccc(-c4ccc(N5CC[C@@H](F)C5)c(C#N)c4)c3o2)cc1 [Compound 191, 4-{7-[3-Cyano-4-((R)-3-fluoro-pyrrolidin-1-yl)-phenyl]-furo[3,2-b]pyridin-2-yl}-benzoic acid ethyl ester]
20 | < 5.30 | – | COC(=O)c1ccc(-c2cc3nccc(-c4ccc(Oc5ccccc5F)c(C#N)c4)c3o2)cc1 [Compound 205]
